A value given as a limit tells only on which side of the number the result lay.

For one assay, the target named is T1, KDM4B (JMJD2B) (Homo sapiens, UniProt O94953).
T1 construct: 2-500; purchased BPS; host or cells: Bac (baculovirus system)
T1 sequence (O94953 2-500): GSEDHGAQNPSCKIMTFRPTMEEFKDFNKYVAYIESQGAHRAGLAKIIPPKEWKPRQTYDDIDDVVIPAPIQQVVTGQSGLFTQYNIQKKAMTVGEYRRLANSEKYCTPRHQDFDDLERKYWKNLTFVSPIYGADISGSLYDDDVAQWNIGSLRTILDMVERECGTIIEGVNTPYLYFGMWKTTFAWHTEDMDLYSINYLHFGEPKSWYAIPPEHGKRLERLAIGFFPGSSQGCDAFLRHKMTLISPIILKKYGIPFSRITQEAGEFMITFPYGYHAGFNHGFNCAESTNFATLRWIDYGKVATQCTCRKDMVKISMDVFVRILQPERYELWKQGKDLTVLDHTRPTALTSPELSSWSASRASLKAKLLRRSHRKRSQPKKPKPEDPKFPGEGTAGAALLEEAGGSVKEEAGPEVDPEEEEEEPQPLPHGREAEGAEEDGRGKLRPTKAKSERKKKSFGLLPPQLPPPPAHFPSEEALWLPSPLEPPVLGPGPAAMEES
As to the kind of experiment: Histone lysine demethylase AlphaLISA assay, KDM4B. Type of assay: biochemical. The following applies: read-out: KDM4B HDME Inhibition IC50. The procedure: Assays are performed analogously to the protocol described by PerkinElmer (Roy et al. PerkinElmer Technical Note: AlphaLISA #12, April 2011)
Enzymes are dissolved in enzyme buffer and incubated for 10 min before being added to 3% DMSO solutions of compounds in enzyme buffer. Incubated for another 10 minutes, before substrate solution is added and the reaction mixture is incubated at room temperature. 10 μL acceptor beads, suspended in Epigenetic Buffer (Perkin Elmer AL008) from stock, are added and the suspension is incubated in the dark at room temperature, before a suspension of streptavidin donor beads (Perkin Elmer 6760002) in Epigenetic Buffer is added. After incubation at room temperature in the dark the plates are read.
BK9M3: Biotin-ARTKQTAR(KMe3)STGGKAPRKQ-NH2 (Caslo, Denmark) […]
Substrate Solution: Substrate, 25 μM L-Asc, and 10 μM α-KG in Buffer A.

The target of a further assay is KDM6A (UTX) (Homo sapiens, UniProt O15550). As to the kind of experiment: Histone lysine demethylase AlphaLISA assay, KDM6A. The following applies: read-out: KDM6A HDME Inhibition IC50. The assay is classed as biochemical. The procedure, abridged: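 Enzyme 10 min pre-incubation; + compound (3% DMSO soln) 10 min; + biotin-H3 methyl-Lys peptide, 25 μM L-Asc, 10 μM α-KG, RT. Read: AlphaLISA acceptor beads, then streptavidin donor beads, RT, dark.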

The target in a further assay is T2, KDM4C (Homo sapiens, UniProt Q9H3R0).
T2 construct: Full length; host or cells: U2OS
T2 sequence (Q9H3R0 1-1056): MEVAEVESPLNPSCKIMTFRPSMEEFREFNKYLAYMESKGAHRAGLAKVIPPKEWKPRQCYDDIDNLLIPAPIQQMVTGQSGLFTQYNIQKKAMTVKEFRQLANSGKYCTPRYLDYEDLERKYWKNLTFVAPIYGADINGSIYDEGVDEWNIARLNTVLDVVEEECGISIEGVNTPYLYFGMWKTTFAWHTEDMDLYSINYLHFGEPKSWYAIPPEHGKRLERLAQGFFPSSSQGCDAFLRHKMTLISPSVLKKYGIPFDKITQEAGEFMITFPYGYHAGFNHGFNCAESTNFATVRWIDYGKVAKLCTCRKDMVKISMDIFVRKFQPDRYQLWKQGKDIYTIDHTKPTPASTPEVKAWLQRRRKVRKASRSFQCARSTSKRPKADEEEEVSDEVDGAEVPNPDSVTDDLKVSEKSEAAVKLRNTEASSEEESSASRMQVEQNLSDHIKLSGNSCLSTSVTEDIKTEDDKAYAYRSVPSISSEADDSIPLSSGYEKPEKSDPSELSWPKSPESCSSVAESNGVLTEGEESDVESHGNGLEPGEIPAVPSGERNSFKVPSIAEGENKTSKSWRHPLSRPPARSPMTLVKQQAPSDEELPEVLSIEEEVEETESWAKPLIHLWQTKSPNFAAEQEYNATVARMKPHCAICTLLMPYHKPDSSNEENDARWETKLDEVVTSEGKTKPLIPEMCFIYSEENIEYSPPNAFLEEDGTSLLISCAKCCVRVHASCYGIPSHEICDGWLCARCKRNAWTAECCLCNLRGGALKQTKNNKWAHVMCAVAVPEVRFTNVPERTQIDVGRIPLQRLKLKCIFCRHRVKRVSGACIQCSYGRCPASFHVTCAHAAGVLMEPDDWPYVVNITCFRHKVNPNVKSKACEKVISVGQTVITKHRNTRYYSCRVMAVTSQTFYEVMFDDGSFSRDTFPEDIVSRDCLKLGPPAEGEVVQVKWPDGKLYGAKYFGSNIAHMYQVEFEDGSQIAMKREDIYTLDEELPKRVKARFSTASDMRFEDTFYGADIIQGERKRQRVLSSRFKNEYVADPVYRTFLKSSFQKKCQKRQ
As to the kind of experiment: Histone lysine demethylase immunofluorescence assay, U2OS cells transfected with KDM4C. The assay is classed as cell-based. The following applies: U2OS cells transfected with pCMVHA KDM4C; mark detected H3K9me3; 20 hours. The method, then:
U2OS cells were seeded 24 hours before transfection. Transfection was performed with Fugene HD transfection reagent as recommended by the manufacturer. 6 hours after transfection, the cells were harvested and seeded into multi well plates into media containing compound. The media used was DMEM containing 10% FBS and pen/strep. 20 hours after incubation of cells with compounds, the cells were washed in PBS, harvested by fixation with formaldehyde 4% aqueous solution, and washed in PBS. Subsequently, the cells were permeabilized in PBS with 0.2% Triton X-100 for. Blocking was performed in PBS with 0.2% Triton X-100 and 5% FBS. The cells were incubated with primary antibodies in blocking solution over night at 4° C. The primary antibodies used in the assays were HA.11 (Covance, MMS-101P) and the antibody detecting the mark specified in the table below. After incubation with primary antibodies, the cells were washed with PBS, incubated with secondary antibodies (Alexa fluor 594 goat anti rabbit IgG, Invitrogen, A11012; Alexa flour 488 donkey anti mouse IgG, Invitrogen, A21202) and Hoechst, (Sigma, 33342) in blocking solution, and washed again with PBS. Finally, PBS was added and high throughput imaging and analysis were performed by an IN Cell Analyzer 1000 (GE Healthcare). The robot software analyzed individual cells and divided these into HA+ (transfected cells) and HA− (non-transfected cells). The IC50 values were based on an average measure of the staining of the mark specified in the table below in the transfected cells.

Chain of KDM6A (UTX) (O15550 919-1401): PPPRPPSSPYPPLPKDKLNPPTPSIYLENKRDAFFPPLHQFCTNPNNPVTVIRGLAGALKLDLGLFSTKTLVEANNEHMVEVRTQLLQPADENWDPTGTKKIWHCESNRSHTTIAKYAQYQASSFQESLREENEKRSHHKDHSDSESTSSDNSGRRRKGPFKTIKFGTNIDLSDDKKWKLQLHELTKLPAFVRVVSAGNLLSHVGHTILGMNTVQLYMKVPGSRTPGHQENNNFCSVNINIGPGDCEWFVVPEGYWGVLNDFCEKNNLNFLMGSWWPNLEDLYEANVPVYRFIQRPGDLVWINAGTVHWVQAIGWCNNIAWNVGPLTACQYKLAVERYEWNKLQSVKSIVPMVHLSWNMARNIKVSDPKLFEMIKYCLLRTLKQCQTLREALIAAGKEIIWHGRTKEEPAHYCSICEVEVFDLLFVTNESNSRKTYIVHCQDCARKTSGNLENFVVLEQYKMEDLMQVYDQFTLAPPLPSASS

Regarding `CCN(CC)CCCCNCc1cc(CNC(=O)C(F)(F)F)ccn1` [Compound 1, N-{[2-({[4-(diethylamino)butyl]-amino}methyl)pyridin-4-yl]methyl}-2,2,2-trifluoroacetamide], the results for the 50% inhibitory concentration (IC50) on KDM4B (JMJD2B), on KDM6A (UTX) and against KDM4C were less than 250 nM, more than 2500 nM and 250 to 2500 nM, respectively.
In the same order, the values of `CN(C)CCCNCc1cc(CN)ccn1` [Compound 3, [2-({[3-(dimethylamino)propyl]-amino}methyl)pyridin-4-yl]methanamine] are less than 250 nM, more than 2500 nM and more than 2500 nM.
As to `CCN(CCN(C)C)C(=O)CNCc1cc(CN)ccn1` [Compound 4, 2-({[4-(aminomethyl)pyridin-2-yl]methyl}amino)-N-[2-(dimethylamino)ethyl]-N-ethylacetamide], the IC50 on KDM4B (JMJD2B) was less than 250 nM; on KDM6A (UTX), more than 2500 nM; at KDM4C it was 250 to 2500 nM.
In the case of `CCN(CC)CCCCNCc1cc(CN)ccn1` [Compound 5, [2-({[4-(diethylamino)butyl]-amino}methyl)pyridin-4-yl]methanamine], the IC50 is more than 2500 nM on KDM4B (JMJD2B), more than 2500 nM at KDM6A (UTX) and 250 to 2500 nM against KDM4C.
`CCN(CC)CCCCN(Cc1cc(CNC(=O)C(F)(F)F)ccn1)C(=O)C(F)(F)F` [Compound 6, N-[4-(diethylamino)butyl]-- 2,2,2-trifluoro-N-({4-[(trifluoroacetamido)-methyl]pyridin-2-yl}methyl)acetamide]: the half-inhibitory concentration (IC50) is less than 250 nM at KDM4B (JMJD2B), more than 2500 nM at KDM6A (UTX) and more than 2500 nM at KDM4C.
Turning to `NCc1ccnc(CNCCCCN2CCC2)c1` [Compound 7, [2-({[4-(azetidin-1-yl)butyl]amino}methyl)-pyridin-4-yl]-methanamine], the 50% inhibitory concentration (IC50) on KDM4B (JMJD2B) is less than 250 nM; on KDM6A (UTX) it was more than 2500 nM; against KDM4C, more than 2500 nM.
Take `CN(C)CCCCCNCc1cc(CN)ccn1` [Compound 8, [2-({[5-(dimethylamino)pentyl]-amino}methyl)pyridin-4-yl]methanamine]: the IC50 at KDM4B (JMJD2B) is more than 2500 nM; at KDM6A (UTX) it was more than 2500 nM; against KDM4C, 250 to 2500 nM.
Regarding `COc1ccccc1CN1CCC(NC(=O)CNCc2cc(CN)ccn2)CC1` [Compound 9, 2-({[4-(aminomethyl)pyridin-2-yl]methyl}amino)-N-{1-[(2-methoxyphenyl)methyl]-piperidin-4-yl}acetamide], the IC50 on KDM4B (JMJD2B), at KDM6A (UTX) and against KDM4C was more than 2500 nM each time.
For the compound `CN(C)CCCCNCc1cc(CNC2CC2)ccn1` [Compound 10, N-{[2-({[4-(dimethylamino)butyl]-amino}methyl)pyridin-4-yl]methyl}-cyclopropanamine], the IC50 at KDM4B (JMJD2B), on KDM6A (UTX) and against KDM4C was more than 2500 nM each time.
For the compound `CC1CCCCN1CCCNCc1cc(CNC2CC2)ccn1` (stereo not drawn) [Compound 11, N-{[2-({[3-(2-methylpiperidin-1-yl)propyl]amino}methyl)-pyridin-4-yl]methyl}-cyclopropanamine], the IC50 on KDM4B (JMJD2B), on KDM6A (UTX) and against KDM4C was more than 2500 nM each time.
In the case of `CCCNCc1cc(CNC2CC2)ccn1` [Compound 12, N-({2-[(propylamino)methyl]-pyridin-4-yl}methyl)-cyclopropanamine], the figures for the IC50 on KDM4B (JMJD2B), at KDM6A (UTX) and at KDM4C were less than 250 nM, more than 2500 nM and more than 2500 nM, respectively.
Turning to `CN(C)C(=O)CNCc1cc(CNCC#N)ccn1` [Compound 13, 2-{[(4-{[(cyanomethyl)amino]-methyl}pyridin-2-yl)methyl]amino}-N,N-dimethylacetamide], the 50% inhibitory concentration (IC50) is more than 2500 nM at KDM4B (JMJD2B), more than 2500 nM on KDM6A (UTX) and 250 to 2500 nM on KDM4C.
For `CN(C)C(=O)CNCc1cc(CNCCF)ccn1` [Compound 14, 2-{[(4-{[(2-fluoroethyl)amino]-methyl}pyridin-2-yl)methyl]amino}-N,N-dimethylacetamide], the values for the half-maximal inhibitory concentration (IC50) at KDM4B (JMJD2B), at KDM6A (UTX) and at KDM4C were 250 to 2500 nM, more than 2500 nM and more than 2500 nM, respectively.
On to `CN(C)CCNCc1ccnc(CNCC(=O)N(C)C)c1` [Compound 15, 2-({[4-({[2-(dimethylamino)ethyl]-amino}methyl)pyridin-2-yl]methyl}amino)-N,N-dimethylacetamide], for which the IC50 on KDM4B (JMJD2B) was 250 to 2500 nM; on KDM6A (UTX), more than 2500 nM; against KDM4C, more than 2500 nM.
With `CNCc1ccnc(CNCCCN(C)Cc2ccccc2)c1` [Compound 17, benzyl(methyl){3-[({4-[(methylamino)methyl]-pyridin-2-yl)methyl)-amino]propyl}-amine], the half-inhibitory concentration (IC50) at KDM4B (JMJD2B) is 250 to 2500 nM; at KDM6A (UTX), more than 2500 nM; on KDM4C, more than 2500 nM.
As to `CN(C)CCNCc1cc(CNC(C#N)C2CC2)ccn1` (stereo not drawn) [Compound 21, 2-cyclopropyl-2-({[2-({[2-(dimethylamino)ethyl]-amino}methyl)pyridin-4-yl]methyl}amino)-acetonitrile], the concentration for half-maximal inhibition (IC50) at KDM4B (JMJD2B), on KDM6A (UTX) and against KDM4C was more than 2500 nM throughout.
Consider `CN(C)CCC/N=C/c1ccnc(CNCCCN(C)C)c1` [Compound 37, [3-(dimethylamino)propyl]-({4-[{[3-(dimethylamino)propyl]-imino}methyl]pyridin-2-yl}methyl)amine], for which the IC50 at KDM4B (JMJD2B) and against KDM4C was 250 to 2500 nM throughout.
With `CCN(CC)CCCCNCc1cc(/C=N/CCOC)ccn1` [Compound 60, [4-(diethylamino)butyl]-({4-[[(2-methoxyethyl)imino]-methyl]pyridin-2-yl}methyl)amine], the IC50 at KDM4B (JMJD2B) was less than 250 nM; on KDM6A (UTX), more than 2500 nM.
Take `CN(C)CCCCCNCc1cc(C=O)ccn1` [Compound 114, 2-({[5-(dimethylamino)-pentyl]amino}methyl)-pyridine-4-carbaldehyde]: the IC50 at KDM4B (JMJD2B) was 250 to 2500 nM; against KDM4C it was more than 2500 nM.

As a reminder, the IC50 is the concentration needed to halve the response being measured.

These data come from patent publication US9650339B2, “Inhibitors of histone demethylases” (Gilead Sciences, Inc., priority 2013, dated 2017).
